The text below walks through data of patent US8415351B2 (priority 2007, dated 2013).

Where only a bound is given, the exact number is not on record here.

Experiment [1] addresses T1, HCV polymerase 1A (Δ21 NS5B, H77) (Hepatitis C virus genotype 1a, UniProt P27958).
T1 construct: 20 to 50 nM Δ21 NS5B
Description: biochemical. Particulars: IC50 1a. In outline:
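Radiometric assay with Δ21 NS5B (H77): 20 μM CTP, 20 μM ATP, 1 μM ^3H-UTP, 5 nM template RNA, 2–4 h at room temperature. RNA precipitated with spermine, filter-captured and counted. IC50 from non-linear fit of retained cpm vs inhibitor concentration (tight-binding equation).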

The target of experiment [2] is T2, HCV polymerase 1B (Δ21 NS5B, BK) (Hepatitis C virus genotype 1b, UniProt P26663).
T2 construct: 20 to 50 nM Δ21 NS5B
T2 sequence (P26663 2420-2989, stated change not applied): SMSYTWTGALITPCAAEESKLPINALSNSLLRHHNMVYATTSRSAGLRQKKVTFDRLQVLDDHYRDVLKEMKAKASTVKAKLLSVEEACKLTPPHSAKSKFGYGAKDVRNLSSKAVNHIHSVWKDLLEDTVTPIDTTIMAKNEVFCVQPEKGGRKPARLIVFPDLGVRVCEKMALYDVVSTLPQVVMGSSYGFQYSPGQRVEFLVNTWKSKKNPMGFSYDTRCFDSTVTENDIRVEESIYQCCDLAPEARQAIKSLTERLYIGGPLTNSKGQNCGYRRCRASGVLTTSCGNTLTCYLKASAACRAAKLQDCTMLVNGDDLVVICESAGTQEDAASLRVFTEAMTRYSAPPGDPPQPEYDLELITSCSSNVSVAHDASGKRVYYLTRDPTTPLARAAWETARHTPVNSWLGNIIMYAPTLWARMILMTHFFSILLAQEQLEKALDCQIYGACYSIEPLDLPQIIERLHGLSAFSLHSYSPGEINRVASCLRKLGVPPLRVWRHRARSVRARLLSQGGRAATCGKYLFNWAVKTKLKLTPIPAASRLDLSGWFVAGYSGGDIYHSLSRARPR
The experiment in a line: biochemical. In outline:
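Δ21 NS5B (genotype 1b, BK […]) preincubated 15 min RT with inhibitor, 2 mM MnCl2, pH 7.4, 60–125 μM GTP; started with 20 μM CTP/ATP, 1 μM 3H-UTP, 5 nM template RNA, run 2–4 h RT. Spermine-precipitated RNA filter-captured, scintillation counted; IC50 from tight-binding (Morrison) fit.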

For experiment [3], the system named is genotype 1a-H77 subgenomic replicon cell line. The experiment in a line: microbe, parasite or virus in culture. The experiment is classed as cell-based, HCV. Particulars: Hepatitis C virus, read-out: EC50 1a.
The subject of experiment [4] is genotype 1b-Con1 subgenomic replicon cell line. The experiment in a line: microbe, parasite or virus in culture. The experiment is classed as cell-based, HCV. The settings on record: Hepatitis C virus, read-out: EC50 1b.

T1 sequence (P27958 2421-2990, stated change not applied): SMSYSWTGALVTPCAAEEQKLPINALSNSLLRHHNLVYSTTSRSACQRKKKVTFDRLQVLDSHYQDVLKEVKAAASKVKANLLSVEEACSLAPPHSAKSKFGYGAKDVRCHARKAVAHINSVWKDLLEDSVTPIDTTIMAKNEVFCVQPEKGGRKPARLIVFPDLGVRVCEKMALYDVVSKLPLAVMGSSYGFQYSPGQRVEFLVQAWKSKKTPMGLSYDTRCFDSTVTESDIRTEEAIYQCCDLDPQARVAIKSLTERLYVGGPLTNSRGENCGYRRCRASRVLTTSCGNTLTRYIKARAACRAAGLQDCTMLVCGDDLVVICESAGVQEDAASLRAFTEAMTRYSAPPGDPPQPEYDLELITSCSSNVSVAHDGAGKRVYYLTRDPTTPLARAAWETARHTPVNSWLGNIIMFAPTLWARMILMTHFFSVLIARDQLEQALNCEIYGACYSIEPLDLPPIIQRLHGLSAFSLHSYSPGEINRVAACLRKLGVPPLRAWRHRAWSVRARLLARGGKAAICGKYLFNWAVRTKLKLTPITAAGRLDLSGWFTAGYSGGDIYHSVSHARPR

A word on the IC50: it is the concentration at which inhibition is half-maximal. Read a high IC50 as lower potency. Broadly, the EC50 is the concentration that produces a half-maximal response. Consider `COc1c(NC(=O)c2ccc(NS(C)(=O)=O)cc2Cl)cc(N2CCC(=O)NC2=O)cc1C(C)(C)C` [IA-L4-1.12, N-(3-tert-butyl-5-(2,4-dioxotetrahydropyrimidin-1(2H)-yl)-2-methoxyphenyl)-2-chloro-4-(methylsulfonamido)benzamide], for which the IC50 in experiment [1] and in experiment [2] was 0.01 to 0.1 µM throughout. Further, the EC50 in experiment [3] and in experiment [4] was 0.1 to 1 µM throughout.

`COc1c(COc2ccc(NS(C)(=O)=O)cc2)cc(N2CCC(=O)NC2=O)cc1C(C)(C)C` [IA-L6-1.1, N-(4-(3-tert-butyl-5-(2,4-dioxotetrahydropyrimidin-1(2H)-yl)-2-methoxybenzyloxy)phenyl)methanesulfonamide]: the results for the IC50 in experiment [1] and in experiment [2] were 0.01 to 0.1 µM and 0.1 to 1 µM, respectively. For the same molecule, the results for the concentration for a half-maximal effect (EC50) in experiment [3] and in experiment [4] were 0.1 to 1 µM and 0.01 to 0.1 µM, respectively.

With `COc1c(CNc2ccc(NS(C)(=O)=O)cc2)cc(N2CCC(=O)NC2=O)cc1C(C)(C)C` [IA-L9-1.4, N-(4-(3-tert-butyl-5-(2,4-dioxotetrahydropyrimidin-1(2H)-yl)-2-methoxybenzylamino)phenyl)methanesulfonamide], the IC50 was 0.01 to 0.1 µM in experiment [1] and 0.1 to 1 µM in experiment [2]. The EC50 was above 1 µM in experiment [3] and 0.1 to 1 µM in experiment [4].

Turning to `COc1c(C(=O)Cc2ccc(NS(C)(=O)=O)cc2)cc(N2CCC(=O)NC2=O)cc1C(C)(C)C` [IA-L11-1.1, N-(4-(2-(3-tert-butyl-5-(2,4-dioxotetrahydropyrimidin-1(2H)-yl)-2-methoxyphenyl)-2-oxoethyl)phenyl)methanesulfonamide], the IC50 in experiment [1] and in experiment [2] was 0.01 to 0.1 µM throughout. Also, the EC50 in experiment [3] was 0.1 to 1 µM; in experiment [4], 0.01 to 0.1 µM.

Consider `COc1c(CC(=O)c2ccc(NS(C)(=O)=O)cc2)cc(N2CCC(=O)NC2=O)cc1C(C)(C)C` [IA-L12-1.1, N-(4-(2-(3-tert-butyl-5-(2,4-dioxotetrahydropyrimidin-1(2H)-yl)-2-methoxyphenyl)acetyl)phenyl)methanesulfonamide], for which the IC50 in experiment [1] and in experiment [2] was 0.01 to 0.1 µM each time. Also, the 50% effective concentration (EC50) lay within 0.1 to 1 µM in experiment [3] and 0.01 to 0.1 µM in experiment [4].

In the case of `COc1c(-c2ccc(/C=N/NS(C)(=O)=O)cc2)cc(-n2ccc(=O)[nH]c2=O)cc1C(C)(C)C` [IB-L0-1.1, (E)-N′-((3′-tert-butyl-5′-(2,4-dioxo-3,4-dihydropyrimidin-1(2H)-yl)-2′-methoxybiphenyl-4-yl)methylene)methanesulfonohydrazide], the IC50 in experiment [1] and in experiment [2] was below 0.01 µM in each case. Besides, the EC50 in experiment [3] and in experiment [4] was 0.01 to 0.1 µM each time.

Turning to `COc1c(-c2ccc(NS(C)(=O)=O)cc2)cc(-n2ccc(=O)[nH]c2=O)cc1C(C)(C)C` [IB-L0-1.2, N-(3′-tert-butyl-5′-(2,4-dioxo-3,4-dihydropyrimidin-1(2H)-yl)-2′-methoxybiphenyl-4-yl)methanesulfonamide], the half-maximal inhibitory concentration (IC50) in experiment [1] and in experiment [2] was 0.1 to 1 µM each time. The EC50 in experiment [3] and in experiment [4] was above 1 µM each time.

Take `COc1c(-c2ccc(/C=N/NS(C)(=O)=O)c(F)c2)cc(-n2ccc(=O)[nH]c2=O)cc1C(C)(C)C` [IB-L0-1.3, (E)-N′-((3′-tert-butyl-5′-(2,4-dioxo-3,4-dihydropyrimidin-1(2H)-yl)-3-fluoro-2′-methoxybiphenyl-4-yl)methylene)methanesulfonohydrazide]: the 50% inhibitory concentration (IC50) in experiment [1] and in experiment [2] was 0.01 to 0.1 µM in each case. Moreover, the EC50 in experiment [3] lay within 0.1 to 1 µM; in experiment [4], 0.01 to 0.1 µM.

Take `COc1c(-c2ccc(CCNS(C)(=O)=O)cc2)cc(-n2ccc(=O)[nH]c2=O)cc1C(C)(C)C` [IB-L0-1.4, N-(2-(3′-tert-butyl-5′-(2,4-dioxo-3,4-dihydropyrimidin-1(2H)-yl)-2′-methoxybiphenyl-4-yl)ethyl)methanesulfonamide]: the IC50 in experiment [1] and in experiment [2] was 0.01 to 0.1 µM each time. Also, the values for the EC50 in experiment [3] and in experiment [4] were 0.1 to 1 µM and 0.01 to 0.1 µM, respectively.

Take `COc1c(-c2ccc(/C(C)=N/NS(C)(=O)=O)cc2)cc(-n2ccc(=O)[nH]c2=O)cc1C(C)(C)C` [IB-L0-1.5, (E)-N′-(1-(3′-tert-butyl-5′-(2,4-dioxo-3,4-dihydropyrimidin-1(2H)-yl)-2′-methoxybiphenyl-4-yl)ethylidene)methanesulfonohydrazide]: the IC50 in experiment [1] and in experiment [2] was 0.01 to 0.1 µM throughout. The EC50 in experiment [3] and in experiment [4] was 0.01 to 0.1 µM each time.

`COc1ccc(-c2cc(-n3ccc(=O)[nH]c3=O)cc(C(C)(C)C)c2OC)cc1/C=N/NS(C)(=O)=O` [IB-L0-1.6, (E)-N′-((3′-tert-butyl-5′-(2,4-dioxo-3,4-dihydropyrimidin-1(2H)-yl)-2′,4-dimethoxybiphenyl-3-yl)methylene)methanesulfonohydrazide]: the IC50 in experiment [1] and in experiment [2] was 0.1 to 1 µM in each case. The results for the EC50 in experiment [3] and in experiment [4] were above 1 µM and 0.1 to 1 µM, respectively.

As for `COc1c(-c2ccc(NC(=O)NS(C)(=O)=O)cc2)cc(-n2ccc(=O)[nH]c2=O)cc1C(C)(C)C` [IB-L0-1.7, N-(3′-tert-butyl-5′-(2,4-dioxo-3,4-dihydropyrimidin-1(2H)-yl)-2′-methoxybiphenyl-4-ylcarbamoyl)methanesulfonamide], the IC50 in experiment [1] and in experiment [2] was 0.01 to 0.1 µM each time. Further, the EC50 in experiment [3] was above 1 µM; in experiment [4], 0.1 to 1 µM.

Regarding `COc1c(-c2cccc(/C(C)=N/NS(C)(=O)=O)c2)cc(-n2ccc(=O)[nH]c2=O)cc1C(C)(C)C` [IB-L0-1.9, (E)-N′-(1-(3′-tert-butyl-5′-(2,4-dioxo-3,4-dihydropyrimidin-1(2H)-yl)-2′-methoxybiphenyl-3-yl)ethylidene)methanesulfonohydrazide], the IC50 in experiment [1] and in experiment [2] was 0.1 to 1 µM each time. Moreover, the half-maximal effective concentration (EC50) in experiment [3] and in experiment [4] was above 1 µM each time.

Turning to `COc1c(-c2cccc(/C=N/NS(C)(=O)=O)c2)cc(-n2ccc(=O)[nH]c2=O)cc1C(C)(C)C` [IB-L0-1.10, (E)-N′-((3′-tert-butyl-5′-(2,4-dioxo-3,4-dihydropyrimidin-1(2H)-yl)-2′-methoxybiphenyl-3-yl)methylene)methanesulfonohydrazide], the IC50 in experiment [1] and in experiment [2] was 0.1 to 1 µM each time. The EC50 in experiment [3] and in experiment [4] was above 1 µM throughout.

With `CC(C)(C)c1cc(-c2ccc3c(c2)CC/C3=N\NS(C)(=O)=O)cc(-n2ccc(=O)[nH]c2=O)c1` [IB-L0-2.7, (E)-N′-(5-(3-tert-butyl-5-(2,4-dioxo-3,4-dihydropyrimidin-1(2H)-yl)phenyl)-2,3-dihydro-1H-inden-1-ylidene)methanesulfonohydrazide], the IC50 in experiment [1] and in experiment [2] was 0.01 to 0.1 µM each time. In addition, the results for the EC50 in experiment [3] and in experiment [4] were 0.1 to 1 µM and 0.01 to 0.1 µM, respectively.

Take `COc1c(-c2ccc3c(CNS(C)(=O)=O)csc3c2)cc(-n2ccc(=O)[nH]c2=O)cc1C(C)(C)C` [IB-L0-2.11, N-((6-(3-tert-butyl-5-(2,4-dioxo-3,4-dihydropyrimidin-1(2H)-yl)-2-methoxyphenyl)benzo[b]thiophen-3-yl)methyl)methanesulfonamide]: the 50% inhibitory concentration (IC50) in experiment [1] and in experiment [2] was below 0.01 µM in each case. Besides, the EC50 is 0.01 to 0.1 µM in experiment [3] and below 0.01 µM in experiment [4].

`COc1c(-c2ccc3c(c2)CCC3(F)CNS(C)(=O)=O)cc(-n2ccc(=O)[nH]c2=O)cc1C(C)(C)C` (centres unmarked) [IB-L0-2.12, N-((5-(3-tert-butyl-5-(2,4-dioxo-3,4-dihydropyrimidin-1(2H)-yl)-2-methoxyphenyl)-1-fluoro-2,3-dihydro-1H-inden-1-yl)methyl)methanesulfonamide]: the IC50 in experiment [1] was below 0.01 µM; in experiment [2] it was 0.01 to 0.1 µM. For the same molecule, the half-maximal effective concentration (EC50) was 0.01 to 0.1 µM in experiment [3] and below 0.01 µM in experiment [4].

Turning to `COc1c(-c2ccc3c(c2)CC=C3CNS(C)(=O)=O)cc(-n2ccc(=O)[nH]c2=O)cc1C(C)(C)C` [IB-L0-2.13, N-((6-(3-tert-butyl-5-(2,4-dioxo-3,4-dihydropyrimidin-1(2H)-yl)-2-methoxyphenyl)-1H-inden-3-yl)methyl)methanesulfonamide], the IC50 in experiment [1] was below 0.01 µM; in experiment [2] it was 0.01 to 0.1 µM. The half-maximal effective concentration (EC50) in experiment [3] was 0.01 to 0.1 µM; in experiment [4], below 0.01 µM.

For `COc1c(-c2ccc3c(c2)CCC3CNS(C)(=O)=O)cc(-n2ccc(=O)[nH]c2=O)cc1C(C)(C)C` (centres unmarked) [IB-L0-2.17, N-((5-(3-tert-butyl-5-(2,4-dioxo-3,4-dihydropyrimidin-1(2H)-yl)-2-methoxyphenyl)-2,3-dihydro-1H-inden-1-yl)methyl)methanesulfonamide], the IC50 in experiment [1] is below 0.01 µM; in experiment [2] it was 0.01 to 0.1 µM. For the same molecule, the EC50 in experiment [3] is 0.01 to 0.1 µM; in experiment [4] it was below 0.01 µM.

For the molecule `COc1c(-c2ccc3c(CNS(C)(=O)=O)coc3c2)cc(-n2ccc(=O)[nH]c2=O)cc1C(C)(C)C` [IB-L0-2.18, N-((6-(3-tert-butyl-5-(2,4-dioxo-3,4-dihydropyrimidin-1(2H)-yl)-2-methoxyphenyl)benzofuran-3-yl)methyl)methanesulfonamide], the IC50 was below 0.01 µM in experiment [1] and 0.01 to 0.1 µM in experiment [2]. Besides, the EC50 in experiment [3] is 0.1 to 1 µM; in experiment [4] it was 0.01 to 0.1 µM.
